In patent US10759790B2, “Heterocyclic constrained tricyclic sulfonamides as anti-cancer agents” (ICAHN SCHOOL OF MEDICINE AT MOUNT SINAI, priority 2015, dated 2020):
Read-outs that look alike come from different tables or passages of the source.

Test system: H1650 lung cancer cells
Experiment: Cell viability assay (MTT, IC50 determination)
Assay type: cell-based
Conditions: for IC50: Homo sapiens, read-out: H1650 cell viability IC50; for H1650 cell viability, % at 40 uM: 48 hours
Description: Cell viability assays were performed according to Denizot, F. and R. Lang, Journal of Immunological Methods, 1986. 89(22): p. 271-277. H1650 lung cancer cells were plated at 150,000 cells per well in a 12 well plate. Twenty-four hours after plating, cells were treated as described with increasing concentrations of drug and control. Forty-eight hours after drug treatment, cells were treated with 100 μL of 3-(4,5-Dimethylthiazol-2-yl)-2,5-diphenyltetrazolium bromide (MTT) and incubated for 2 hours at 37 C. The MTT solution was subsequently replaced with 300 μL of n-propyl alcohol and re-aliquoted to a 96 well plate. Spectrophotometric analysis of each solution was performed using a 96 well plate reader at 600 nm in triplicate.

[1] = NCI-H1650, H1650 lung cancer cells, MTT, 48 hours after drug treatment

Row | IC50 [1] | SMILES | further results
1 | – | COC(=O)N1C[C@@H](NS(=O)(=O)c2ccc(OC(F)(F)F)cc2)[C@H](O)[C@@H](N2c3ccccc3Oc3ccccc32)C1 [Example 20a, (3S,4R,5R)-methyl 4-hydroxy-3-(10H-phenoxazin-10-yl)-5-(4-(trifluoromethoxy)phenylsulfonamido)piperidine-1-carboxylate] | IC50 (NCI-H1650, 48 h): 15 µM
2 | 25 µM | CN1C[C@@H](NS(=O)(=O)c2ccc(OC(F)(F)F)cc2)[C@H](O)[C@@H](N2c3ccccc3Oc3ccccc32)C1 [Example 19a] | –
3 | 15 µM | O=S(=O)(N[C@H]1COC[C@@H](N2c3ccccc3Oc3ccccc32)[C@@H]1O)c1ccc(OC(F)(F)F)cc1 [Example 2b, N-((3S,4S,5R)-4-hydroxy-5-(10H-phenoxazin-10-yl)tetrahydro-2H-pyran-3-yl)-4-(trifluoromethoxy)benzenesulfonamide] | –
4 | – | [N-]=[N+]=Nc1ccc(S(=O)(=O)N[C@@H]2COC[C@H](N3c4ccccc4Oc4ccccc43)[C@H]2O)cc1 [Example 6] | IC50 (NCI-H1650, 48 h): 25 µM
5 | 10 µM | O=S(=O)(N[C@@H]1COC[C@H](n2c3ccccc3c3ccccc32)[C@H]1O)c1ccc(OC(F)(F)F)cc1 [Example 50, N-((3R,4R,5S)-5-(9H-carbazol-9-yl)-4-hydroxytetrahydro-2H-pyran-3-yl)-4-(trifluoromethoxy)benzenesulfonamide] | –
6 | 5 µM | CC(C)(C)OC(=O)N1C[C@@H](NS(=O)(=O)c2ccc(OC(F)(F)F)cc2)[C@H](O)[C@@H](n2c3ccc(Cl)cc3c3cc(Cl)ccc32)C1 [Example 56, (3S,4R,5R)-tert-butyl 3-(3,6-dichloro-9H-carbazol-9-yl)-4-hydroxy-5-(4-(trifluoromethoxy)phenylsulfonamido)piperidine-1-carboxylate] | –
7 | 15 µM | O=S(=O)(N[C@@H]1COCC(n2c3ccccc3c3ccccc32)[C@H]1O)c1ccc(OC(F)(F)F)cc1 (mixture of isomers) [Example 1, Rac-N-(3R,4R,5S)-5-(9H-carbazol-9-yl)-4-hydroxytetrahydro-2H-pyran-3-yl)-4-(trifluoromethoxy)benzenesulfonamide] | –
8 | 15 µM | O=S(=O)(N[C@@H]1COC[C@H](N2c3ccccc3Oc3ccccc32)[C@H]1O)c1cccc(Cl)c1 [Example 64, 3-chloro-N-((3R,4R,5S)-4-hydroxy-5-(10H-phenoxazin-10-yl)tetrahydro-2H-pyran-3-yl)benzenesulfonamide] | –
9 | 5 µM | O=S(=O)(N[C@@H]1CNC[C@H](n2c3ccc(F)cc3c3cc(F)ccc32)[C@H]1O)c1ccc(OC(F)(F)F)cc1 [Example 55, N-((3R,4R,5S)-5-(3,6-difluoro-9H-carbazol-9-yl)-4-hydroxypiperidin-3-yl)-4-(trifluoromethoxy)benzenesulfonamide] | –
10 | 10 µM | O=S(=O)(N[C@@H]1COC[C@H](n2c3ccc(F)cc3c3cc(F)ccc32)[C@H]1O)c1ccc(OC(F)(F)F)cc1 [Example 3, N-((3R,4R,5S)-5-(3,6-difluoro-9H-carbazol-9-yl)-4-hydroxytetrahydro-2H-pyran-3-yl)-4-(trifluoromethoxy)benzenesulfonamide] | –
11 | 5 µM | O=S(=O)(N[C@@H]1COC[C@H](N2c3ccccc3Oc3cc(Cl)ccc32)[C@H]1O)c1ccc(OC(F)(F)F)cc1 [Example 13, N-((3R,4R,5S)-5-(3-chloro-10H-phenoxazin-10-yl)-4-hydroxytetrahydro-2H-pyran-3-yl)-4-(trifluoromethoxy)benzenesulfonamide] | –
12 | 10 µM | CC(C)(C)OC(=O)N1C[C@@H](NS(=O)(=O)c2ccc(OC(F)(F)F)cc2)[C@H](O)[C@@H](N2c3ccccc3Oc3ccccc32)C1 [Example 16a, (3S,4R,5R)-tert-butyl 4-hydroxy-3-(10H-phenoxazin-10-yl)-5-(4-(trifluoromethoxy)phenylsulfonamido)piperidine-1-carboxylate] | –
13 | – | Nc1cccc(S(=O)(=O)N[C@@H]2COC[C@H](N3c4ccccc4Oc4ccccc43)[C@H]2O)c1 [Example 69, 3-amino-N-((3R,4R,5S)-4-hydroxy-5-(10H-phenoxazin-10-yl)tetrahydro-2H-pyran-3-yl)benzenesulfonamide] | H1650 cell viability, % at 40 uM (H1650 lung cancer cells, MTT): 54% at 40 uM
14 | 20 µM | O=S(=O)(N[C@@H]1COC[C@H](N2c3ccccc3Oc3ccccc32)[C@H]1O)c1ccc(C(F)(F)F)nc1 [Example 63, N-((3R,4R,5S)-4-hydroxy-5-(10H-phenoxazin-10-yl)tetrahydro-2H-pyran-3-yl)-6-(trifluoromethyl)pyridine-3-sulfonamide] | –
15 | 10 µM | O=S(=O)(N[C@@H]1COC[C@H](N2c3ccccc3Oc3cc(F)ccc32)[C@H]1O)c1ccc(OC(F)(F)F)cc1 [Example 11, N-((3R,4R,5S)-5-(3-fluoro-10H-phenoxazin-10-yl)-4-hydroxytetrahydro-2H-pyran-3-yl)-4-(trifluoromethoxy)benzenesulfonamide] | –
16 | – | O=S(=O)(N[C@@H]1COC[C@H](N2c3ccccc3Oc3ccccc32)[C@H]1O)c1ccccc1 [Example 60, N-((3R,4R,5S)-4-hydroxy-5-(10H-phenoxazin-10-yl)tetrahydro-2H-pyran-3-yl)benzenesulfonamide] | H1650 cell viability, % at 40 uM (H1650 lung cancer cells, MTT): 37% at 40 uM
17 | 10 µM | O=S(=O)(N[C@@H]1COC[C@H](N2c3ccc(Cl)cc3Oc3cc(Cl)ccc32)[C@H]1O)c1ccc(OC(F)(F)F)cc1 [Example 12, N-((3R,4R,5S)-5-(3,7-dichloro-10H-phenoxazin-10-yl)-4-hydroxytetrahydro-2H-pyran-3-yl)-4-(trifluoromethoxy)benzenesulfonamide] | –
18 | 5 µM | O=S(=O)(N[C@@H]1COC[C@H](N2c3ccc(C(F)(F)F)cc3Oc3cc(C(F)(F)F)ccc32)[C@H]1O)c1ccc(OC(F)(F)F)cc1 [Example 14, N-((3R,4R,5S)-5-(3,7-bis(trifluoromethyl)-10H-phenoxazin-10-yl)-4-hydroxytetrahydro-2H-pyran-3-yl)-4-(trifluoromethoxy)benzenesulfonamide] | –
19 | 10 µM | CC(C)(C)OC(=O)N1C[C@H](NS(=O)(=O)c2ccc(OC(F)(F)F)cc2)[C@@H](O)[C@H](N2c3ccccc3Oc3ccccc32)C1 [Example 16b, (3R,4S,5S)-tert-butyl 4-hydroxy-3-(10H-phenoxazin-10-yl)-5-(4-(trifluoromethoxy)phenylsulfonamido)piperidine-1-carboxylate] | –
20 | 5 µM | O=S(=O)(N[C@@H]1COC[C@H](n2c3ccc(Cl)cc3c3cc(Cl)ccc32)[C@H]1O)c1ccc(OC(F)(F)F)cc1 [Example 5, N-((3R,4R,5S)-5-(3,6-dichloro-9H-carbazol-9-yl)-4-hydroxytetrahydro-2H-pyran-3-yl)-4-(trifluoromethoxy)benzenesulfonamide] | –
21 | 5 µM | CC(C)(C)OC(=O)Nc1ccc(S(=O)(=O)N[C@@H]2COC[C@H](N3c4ccccc4Oc4ccccc43)[C@H]2O)cc1 [Example 66, tert-butyl (4-(N-((3R,4R,5S)-4-hydroxy-5-(10H-phenoxazin-10-yl)tetrahydro-2H-pyran-3-yl)sulfamoyl)phenyl)carbamate] | –
22 | 5 µM | O=S(=O)(N[C@@H]1COC[C@H](N2c3ccccc3Oc3cc(C(F)(F)F)ccc32)[C@H]1O)c1ccc(OC(F)(F)F)cc1 [Example 15, N-((3R,4R,5S)-4-hydroxy-5-(3-(trifluoromethyl)-10H-phenoxazin-10-yl)tetrahydro-2H-pyran-3-yl)-4-(trifluoromethoxy)benzenesulfonamide] | –
23 | 5 µM | O=S(=O)(N[C@@H]1CNCC(N2c3ccccc3Oc3ccccc32)[C@H]1O)c1ccc(OC(F)(F)F)cc1 (mixture of isomers) [Example 17, Rac-N-((3R,4R,5S)-4-hydroxy-5-(10H-phenoxazin-10-yl)piperidin-3-yl)-4-(trifluoromethoxy)benzenesulfonamide] | –
24 | 15 µM | O=S(=O)(N[C@@H]1COC[C@H](n2c3ccccc3c3cc(F)ccc32)[C@H]1O)c1ccc(OC(F)(F)F)cc1 [Example 4, N-((3R,4R,5S)-5-(3-fluoro-9H-carbazol-9-yl)-4-hydroxytetrahydro-2H-pyran-3-yl)-4-(trifluoromethoxy)benzenesulfonamide] | –
25 | 5 µM | O=S(=O)(N[C@@H]1CNC[C@H](N2c3ccc(C(F)(F)F)cc3Oc3cc(C(F)(F)F)ccc32)[C@H]1O)c1ccc(OC(F)(F)F)cc1 [Example 58, N-((3R,4R,5S)-5-(3,7-bis(trifluoromethyl)-10H-phenoxazin-10-yl)-4-hydroxypiperidin-3-yl)-4-(trifluoromethoxy)benzenesulfonamide] | –
26 | 5 µM | CC(C)(C)OC(=O)N1C[C@H](NS(=O)(=O)c2ccc(OC(F)(F)F)cc2)[C@@H](O)[C@H](n2c3ccccc3c3ccccc32)C1 [Example 52b, (3R,4S,5S)-tert-butyl 3-(9H-carbazol-9-yl)-4-hydroxy-5-(4-(trifluoromethoxy)phenylsulfonamido)piperidine-1-carboxylate] | –
27 | 10 µM | O=S(=O)(N[C@@H]1COC[C@H](N2c3ccccc3Oc3ccc(C(F)(F)F)cc32)[C@H]1O)c1ccc(OC(F)(F)F)cc1 [Example 8, N-((3R,4R,5S)-4-hydroxy-5-(2-(trifluoromethyl)-10H-phenoxazin-10-yl)tetrahydro-2H-pyran-3-yl)-4-(trifluoromethoxy)benzenesulfonamide] | –
28 | 5 µM | O=S(=O)(N[C@@H]1COC[C@H](N2c3ccccc3Oc3ccccc32)[C@H]1O)c1ccc(Cl)cc1 [Example 61, 4-chloro-N-((3R,4R,5S)-4-hydroxy-5-(10H-phenoxazin-10-yl)tetrahydro-2H-pyran-3-yl)benzenesulfonamide] | –
29 | 15 µM | O=S(=O)(N[C@@H]1COCC(N2c3ccccc3Oc3ccccc32)[C@H]1O)c1ccc(OC(F)(F)F)cc1 (relative stereo) [Example 2, N-(4-hydroxy-5-(10H-phenoxazin-10-yl)tetrahydro-2H-pyran-3-yl)-4-(trifluoromethoxy)benzenesulfonamide] | –
